In brackets after ≈: the same amount, converted by molar mass. Structures can show the parent of a compound that is named as a salt.
Tests used:
Format in all cases: physicochemical
[1] = Light stability, 1.2 MLux h (Table 1A)
Description: (§1) Several physical forms of Compound A were analyzed: the free base, tartrate salt, and tosylate salt.

[2] = Stability in aqueous solutions (Table 1A)
Description: as §1

[3] = Hygroscopicity (Table 1A)
Description: as §1

[4] = Bulk stability at 80° C./75% RH, 1 week (Table 1A)
Description: as §1

[5] = Solubility at 25° C. in SGF, FaSSIF, FeSSIF (Table 1A)
Description: as §1

[6] = Polymorphism (Table 1A)
Description: as §1

[7] = Photostability under light stress (Table 1C); conditions: RT, light dose 1.2 Lux·h*10^6
Source text: The photostability of crystalline hydrate and crystalline tosylate forms of Compound A under photo, or light stress is provided in Table 1C.

[8] = Stability in solution/suspension at pH 1, 4.5, 7.4 under heat (Table 1E); conditions: 5 days
[9] = Bulk solid stability under thermal stress (Table 1D); conditions: 5 days
[10] = Solubility at various pH and in biorelevant media (Table 1B)
Source text: Compound A has very limited solubility in all pHs.

In the case of `Cc1ccc(NC(=O)c2ccnc(C(F)(F)F)c2)cc1-c1cc(OCCO)nc(N2CCOCC2)c1` [Compound A (tartrate salt), N-(3-(2-(2-hydroxyethoxy)-6-morpholinopyridin-4-yl)-4-methylphenyl)-2-(trifluoromethyl)isonicotinamide], the “Light stability (1.2 MLux h)” value [1] is reported as “Significant degradation”, the “Stability in aqueous solutions” value ([2]; pH 1.2 and pH 10.0) is reported as “Significant degradation” and the “Stability in aqueous solutions” value ([2]; pH 2.9 to 6.8) is reported as “Relatively stable at pH”. For the same compound, the Hygroscopicity [3] was “High”, the “Bulk stability (degradation)” value [4] was “week), significant” and the “Solubility at 25° C.” value ([5]; FaSSIF) was 0.6 µg/mL. The “pH final of solubility test” value ([5]; FaSSIF) was 3.54, the “Solubility at 25° C.” value ([5]; FeSSIF) was 109.2 µg/mL and the “pH final of solubility test” value ([5]; FeSSIF) was 4.93. The “Solubility at 25° C.” value ([5]; SGF) was 53.5 µg/mL, the “pH final of solubility test” value ([5]; SGF) was 1.89 and the Polymorphism [6] was “Potential issue”.
With `Cc1ccc(NC(=O)c2ccnc(C(F)(F)F)c2)cc1-c1cc(OCCO)nc(N2CCOCC2)c1` [Compound A (tosylate salt), N-(3-(2-(2-hydroxyethoxy)-6-morpholinopyridin-4-yl)-4-methylphenyl)-2-(trifluoromethyl)isonicotinamide] the Appearance/XRPD/DSC ([7]; Bulk) was “No change”, the “Degradation Products [%] (HPLC)” value ([7]; Bulk) was <1.0% and the “Degradation Products [%] (HPLC)” value ([7]; Ethanol) was 97%. For the same compound, the “Light stability (1.2 MLux h)” value [1] was “No degradation”, the “Parent remaining [%] (HPLC)” value ([8]; pH 1, 50 ° C.) was 23% and the “Parent remaining [%] (HPLC)” value ([8]; pH 1, 80 ° C.) was 0.2%. For the same compound, the “Parent remaining [%] (HPLC)” value ([8]; pH 1, RT) was 97%, the “Parent remaining [%] (HPLC)” value ([8]; pH 4.5, 50 ° C.) was >99% and the “Parent remaining [%] (HPLC)” value ([8]; pH 4.5, 80 ° C.) was 98.6%. For the same compound, the “Parent remaining [%] (HPLC)” value ([8]; pH 4.5, RT) was >99%, the “Parent remaining [%] (HPLC)” value ([8]; pH 7.4, 50 ° C.) was 97% and the “Parent remaining [%] (HPLC)” value ([8]; pH 7.4, 80 ° C.) was 74%. The “Parent remaining [%] (HPLC)” value ([8]; pH 7.4, RT) was >99%, the Appearance/XRPD/DSC ([9]; 50 ° C.) was “No change” and the “Parent remaining [%] (HPLC)” value ([9]; 50 ° C.) was >99%. For the same compound, the Appearance/XRPD/DSC ([9]; 80 ° C.) was “No change”, the “Parent remaining [%] (HPLC)” value ([9]; 80 ° C.) was >99% and the Appearance/XRPD/DSC ([9]; RT) was “No change”. The “Parent remaining [%] (HPLC)” value ([9]; RT) was >99%, the Hygroscopicity [3] was “Low” and the Solubility ([10]; FaSSIF V2) was 16 µg/mL. For the same compound, the “pH final of solubility test” value ([10]; FaSSIF V2) was 6.07, the Solubility ([10]; FeSSIF V2) was 51 µg/mL and the “pH final of solubility test” value ([10]; FeSSIF V2) was 5.41. The Solubility ([10]; SGF pH 2.0) was 29 µg/mL, the “pH final of solubility test” value ([10]; SGF pH 2.0) was 2.02 and the Solubility ([10]; Water) was 5140 µg/mL. For the same compound, the “pH final of solubility test” value ([10]; Water) was 2.71, the Solubility ([10]; pH 1) was 106 µg/mL and the “pH final of solubility test” value ([10]; pH 1) was 1.23. For the same compound, the Solubility ([10]; pH 4.5) was 2 µg/mL, the “pH final of solubility test” value ([10]; pH 4.5) was 3.85 and the Solubility ([10]; pH 7.0) was 2 µg/mL. For the same compound, the “pH final of solubility test” value ([10]; pH 7.0) was 6.83, the “Bulk stability (degradation)” value [4] was 75% RH (1 week), no and the “Bulk stability (physical)” value [4] was “Physically unstable at 80° C./”. The “Solubility at 25° C.” value ([5]; FaSSIF) was 1.1 µg/mL, the “pH final of solubility test” value ([5]; FaSSIF) was 6.66 and the “Solubility at 25° C.” value ([5]; FeSSIF) was 115.8 µg/mL. The “pH final of solubility test” value ([5]; FeSSIF) was 5.58, the “Solubility at 25° C.” value ([5]; SGF) was 10 µg/mL and the “pH final of solubility test” value ([5]; SGF) was 1.75. The Polymorphism [6] was “No issue encountered”.
With `Cc1ccc(NC(=O)c2ccnc(C(F)(F)F)c2)cc1-c1cc(OCCO)nc(N2CCOCC2)c1` [Compound A (hydrate), N-(3-(2-(2-hydroxyethoxy)-6-morpholinopyridin-4-yl)-4-methylphenyl)-2-(trifluoromethyl)isonicotinamide] the Appearance/XRPD/DSC ([7]; Bulk) was “No change”, the “Degradation Products [%] (HPLC)” value ([7]; Bulk) was <1.0% and the “Degradation Products [%] (HPLC)” value ([7]; Ethanol) was 18%. The Solubility ([10]; FaSSIF V2) was 4 µg/mL, the “pH final of solubility test” value ([10]; FaSSIF V2) was 6.44 and the Solubility ([10]; FeSSIF V2) was 47 µg/mL. The “pH final of solubility test” value ([10]; FeSSIF V2) was 5.6, the Solubility ([10]; SGF pH 2.0) was 25 µg/mL and the “pH final of solubility test” value ([10]; SGF pH 2.0) was 2.19. For the same compound, the Solubility ([10]; Water) was 1 µg/mL, the “pH final of solubility test” value ([10]; Water) was 5.99 and the Solubility ([10]; pH 1) was 170 µg/mL. For the same compound, the “pH final of solubility test” value ([10]; pH 1) was 1.23, the Solubility ([10]; pH 4.5) was 1 µg/mL and the “pH final of solubility test” value ([10]; pH 4.5) was 4.0. The Solubility ([10]; pH 7.0) was 0.8 µg/mL and the “pH final of solubility test” value ([10]; pH 7.0) was 7.0.
With `Cc1ccc(NC(=O)c2ccnc(C(F)(F)F)c2)cc1-c1cc(OCCO)nc(N2CCOCC2)c1` [Compound A (free base), N-(3-(2-(2-hydroxyethoxy)-6-morpholinopyridin-4-yl)-4-methylphenyl)-2-(trifluoromethyl)isonicotinamide] the “Light stability (1.2 MLux h)” value [1] was “Slight degradation”, the “Stability in aqueous solutions” value ([2]; pH 1.2 and pH 10.0) was “Significant degradation” and the “Stability in aqueous solutions” value ([2]; pH 2.9 to 6.8) was “Relatively stable at pH”. For the same compound, the Hygroscopicity [3] was “Low”, the Solubility ([10]; FaSSIF V2) was 35 µg/mL (≈ 69.7 µM) and the “pH final of solubility test” value ([10]; FaSSIF V2) was 6.51. For the same compound, the Solubility ([10]; FeSSIF V2) was 576 µg/mL (≈ 1150 µM), the “pH final of solubility test” value ([10]; FeSSIF V2) was 5.82 and the Solubility ([10]; SGF pH 2.0) was 699 µg/mL (≈ 1390 µM). The “pH final of solubility test” value ([10]; SGF pH 2.0) was 1.86, the Solubility ([10]; Water) was 2 µg/mL (≈ 3.98 µM) and the “pH final of solubility test” value ([10]; Water) was 7.33. The Solubility ([10]; pH 1) was 400 µg/mL (≈ 796 µM), the “pH final of solubility test” value ([10]; pH 1) was 1.07 and the Solubility ([10]; pH 2) was 140 µg/mL (≈ 279 µM). For the same compound, the “pH final of solubility test” value ([10]; pH 2) was 1.96, the “pH final of solubility test” value ([10]; pH 4.5) was 4.56 and the Solubility ([10]; pH 4.5, aqueous buffer, thermodynamic from solid, pH 4.5, read-out: Solubility) was 2 µg/mL (≈ 3.98 µM). The “pH final of solubility test” value ([10]; pH 7.4) was 7.33, the Solubility ([10]; pH 7.4, aqueous buffer, thermodynamic from solid, pH 7.4, read-out: Solubility) was 1 µg/mL (≈ 1.99 µM) and the “Bulk stability (degradation)” value [4] was “week), slight”. The “Solubility at 25° C.” value ([5]; FaSSIF) was 1.4 µg/mL (≈ 2.79 µM), the “pH final of solubility test” value ([5]; FaSSIF) was 6.91 and the “pH final of solubility test” value ([5]; FeSSIF) was 6.08. The Solubility ([5]; FeSSIF, 25 °C, thermodynamic from solid) was 137 µg/mL (≈ 273 µM), the “Solubility at 25° C.” value ([5]; SGF) was 2.1 µg/mL (≈ 4.18 µM) and the “pH final of solubility test” value ([5]; SGF) was 2.02. The Polymorphism [6] was “Yes”.

— patent US20260048064A1, “AMORPHOUS SOLID DISPERSIONS COMPRISING NAPORAFENIB” (Novartis AG, priority 2022, published 2026)
